# Assay results taken from patent publication US11089783B2, “2-(het)aryl-substituted fused heterocycle derivatives as pesticides” (Bayer Aktiengesellschaft, priority 2017, dated 2021).
# Experiments:
# Format in all cases: in vivo
# Nilaparvata lugens = Nilaparvata lugens spray test (NILALU); conditions: 4 g/ha, 4 dat
# Protocol: (§1) [table] To produce an appropriate active ingredient formulation, 1 part by weight of active ingredient is dissolved with the specified parts by weight of solvent and made up with water containing an emulsifier concentration of 1000 ppm until the desired concentration is attained. To produce further test concentrations, the mixture is diluted with emulsifier-containing water. If addition of ammonium salts or/and penetrants is required, these are each added to the preparation solution in a concentration of 1000 ppm. Rice plants (Oryza sativa) are sprayed with an active ingredient formulation of the desired concentration and then populated with larvae of the brown planthopper (Nilaparvata lugens). After the desired time, the efficacy in % is determined. 100% means that all planthoppers have been killed; 0% means that no planthoppers have been killed.
# Meloidogyne incognita [1] = assay: Meloidogyne incognita test (MELGIN); conditions: 20 ppm, 14 days (14 dat)
# Outline: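 Sand with lettuce seeds, M. incognita egg/larvae suspension and aqueous dilution of compound concentrate. Nematicidal efficacy scored from gall (root-knot) formation after 14 days or the desired time, as % relative to untreated control (100% = no galls; 0% = as control).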
# Musca domestica = Musca domestica test; conditions: 100 ppm, adult houseflies, after 2 days
# Protocol: Solvent: dimethyl sulfoxide To produce a suitable active ingredient formulation, 10 mg of active ingredient are mixed with 0.5 ml of dimethyl sulfoxide, and the concentrate is diluted with water to the desired concentration. Vessels containing a sponge treated with sugar solution and the active ingredient formulation of the desired concentration are populated with 10 adult houseflies (Musca domestica). After 2 days, the kill in % is determined. 100% means that all of the flies have been killed; 0% means that none of the flies have been killed.
# Lucilia cuprina = Lucilia cuprina test; conditions: 48 h, L1 larvae, after 2 days, read-out: efficacy (kill)
# Outline: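 About 20 L1 larvae of Lucilia cuprina placed on minced horsemeat containing compound (DMSO stock diluted in water to test concentration). Kill (%) scored after 2 days; 100% = all larvae dead, 0% = none dead.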
# Myzus persicae [2] = assay: Myzus persicae spray test (MYZUPE), Chinese cabbage leaf discs
# Outline: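 Leaf discs of Chinese cabbage carrying all stages of green peach aphid were sprayed with compound formulated in solvent and diluted with water containing emulsifier at 1000 ppm. Percent efficacy (100% = all aphids dead) was scored after 5 days or after the desired time.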
# Aphis gossypii = Aphis gossypii spray test (APHIGO), cotton plants; conditions: 6 dat
# Outline: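 Cotton plants (Gossypium hirsutum) heavily infested with cotton aphids were sprayed with the active ingredient formulated in emulsifier-containing water (1000 ppm emulsifier), with ammonium salt or penetrant added at 1000 ppm where required. After the set time, percent kill was determined, where 100% means all aphids dead.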
# Phaedon cochleariae [3] = assay: Phaedon cochleariae spray test (PHAECO), Chinese cabbage leaf discs
# Outline: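 Chinese cabbage (Brassica pekinensis) leaf discs sprayed with compound in water with 1000 ppm emulsifier, then after drying infested with Phaedon cochleariae larvae. Efficacy (% larvae killed) scored after 7 days or the chosen interval.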
# Myzus persicae [4] = assay: Myzus persicae oral test; conditions: 120 h, after 5 days, read-out: efficacy
# Outline: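 Compound solution in IPL41 insect medium with sugar was sealed under parafilm, through which a mixed population of green peach aphids fed. Mortality was scored after 5 days as % efficacy, with 100% meaning all aphids killed.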
# Diabrotica balteata = Diabrotica balteata drench test (DIABBA); conditions: soil, 192 h, 8 dat, read-out: % efficacy
# Protocol: [table] To produce an appropriate active ingredient formulation, 1 part by weight of active ingredient is mixed with the specified amounts of solvent and emulsifier and the concentrate is diluted to the desired concentration with water, it being necessary to take into account the volume of soil into which drenching is effected. It should be ensured that a concentration of 40 ppm of emulsifier in the soil is not exceeded. For production of further test concentrations, the mixture is diluted with water. 5 maize kernels in each case are sown into soil-filled pots (Zea mays) and, the next day, drenched with the active ingredient formulation of the desired concentration. After one day, about 25 L2 larvae of the banded cucumber beetle (Diabrotica balteata) were added. After 8 days, the efficacy in % is determined. 100% means that all 5 plants have germinated and grown; 0% means that no plant has emerged.
# Meloidogyne incognita [5] = assay: Meloidogyne incognita drench test (MELGIN D); conditions: soil, 504 h, 21 dat, read-out: % efficacy
# Protocol: [table] To produce an appropriate active ingredient formulation, 1 part by weight of active ingredient is mixed with the specified amounts of solvent and emulsifier and the concentrate is diluted to the desired concentration with water, it being necessary to take into account the volume of soil into which drenching is effected. It should be ensured that a concentration of 20 ppm of emulsifier in the soil is not exceeded. For production of further test concentrations, the mixture is diluted with water. Pots filled with soil (loamy sand) are drenched with the active ingredient solution. An egg/larvae suspension of the southern root-knot nematode (Meloidogyne incognita) is added, and lettuce seeds are scattered over the soil surface and covered with quartz sand. The lettuce seeds germinate and the seedlings develop. The root-knots develop on the roots. After the desired time, the nematicidal effect is determined with reference to the root-knot formation in %. 100% means that no root-knots were found; 0% means that the number of root-knots on the treated plants corresponds to that on the untreated control.
# Phaedon cochleariae [6] = assay: Phaedon cochleariae spray test (PHAECO S), cabbage leaves; conditions: Phaedon cochleariae, 168 h, 7 dat, read-out: % efficacy
# Protocol: as §1, with “Cabbage leaves (Brassica oleracea)” for “Rice plants (Oryza sativa)”, “and” for “and then”, “mustard beetle (Phaedon cochleariae).” for “brown planthopper (Nilaparvata lugens).”, “kill” for “efficacy”, “beetle larvae” for “planthoppers”
# Tetranychus urticae = Tetranychus urticae spray test, OP-resistant (TETRUR); conditions: Tetranychus urticae, 144 h, TETRUR, 6 dat, read-out: % efficacy
# Protocol: [table] To produce a suitable active ingredient formulation, 1 part by weight of active ingredient is dissolved with the specified parts by weight of solvent and made up to the desired concentration with water containing an emulsifier concentration of 1000 ppm. To produce further test concentrations, the formulation is diluted with emulsifier-containing water. Discs of bean leaves (Phaseolus vulgaris) infested with all stages of the greenhouse red spider mite (Tetranychus urticae) are sprayed with an active ingredient formulation of the desired concentration. After 6 days, the efficacy in % is determined. 100% means that all the spider mites have been killed; 0% means that no spider mites have been killed.
# Nezara viridula = Nezara viridula spray test (NEZARA / NEZAVI); conditions: Nezara viridula, 96 h, 4 g/ha, 4 dat, read-out: % efficacy
# Outline: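 Barley plants infested with Nezara viridula larvae were sprayed with active ingredient in solvent/emulsifier water (1000 ppm emulsifier; ammonium salt or penetrant at 1000 ppm if added). Efficacy scored as % mortality after the set time (100% = all bugs killed).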
SMILES,% efficacy (Nilaparvata lugens) [%],"efficacy (nematicidal, gall formation) (Meloidogyne incognita [1]) [%]",efficacy (kill) (Musca domestica) [%],pest or weed control at 100 ppm (Lucilia cuprina) [%],"% efficacy (Myzus persicae [2]; MYZUPE, 4 g/ha, 5 dat) [%]","pest or weed control at 100 g/ha (Myzus persicae [2]; Myzus persicae, foliar, 120 h, 100 g/ha, 5 days (5 dat), read-out: efficacy) [%]",% efficacy (Aphis gossypii; 0.8 ppm) [%],% efficacy (Aphis gossypii; 4 ppm) [%],"efficacy (Phaedon cochleariae [3]; 100 g/ha, 7 days (7 dat)) [%]","% efficacy (Phaedon cochleariae [3]; PHAECO, 20 g/ha, 7 dat) [%]",pest or weed control at 0.8 ppm (Myzus persicae [4]) [%],Emax at 20 ppm (Diabrotica balteata) [%],"Emax at 4 ppm (Aphis gossypii; Aphis gossypii, 144 h, 4 ppm, read-out: % efficacy) [%]",Emax at 1 ppm (Meloidogyne incognita [5]; 1 ppm) [%],Emax at 2 ppm (Meloidogyne incognita [5]; 2 ppm) [%],Emax at 4 ppm (Phaedon cochleariae [6]; 4 ppm) [%],Emax at 20 ppm (Phaedon cochleariae [6]; 20 ppm) [%],Emax at 20 g/ha (Tetranychus urticae; 20 g/ha) [%],Emax at 100 g/ha (Tetranychus urticae; 100 g/ha) [%],Emax at 4 g/ha (Nezara viridula) [%]
CCS(=O)(=O)c1ccc(C(=O)NC)nc1-c1nc2cc(C(F)(F)C(F)(F)F)nnc2n1C [Example I-01],100,90,100,100,90,90,70,100,100,67,100,,,,,,,,,
CCS(=O)(=O)c1ccc(NC(=O)NC)nc1-c1nc2cc(C(F)(F)F)nnc2n1C [reference compound],,,,,,,,,,,,0,25,0,50,0,0,0,0,0
